Measured values reported in patent US20030044399A1, “Method of treatment” (SmithKline Beecham Corporation, priority 1998, published 2003).

molecular target: Cruzain (Trypanosoma cruzi, UniProt P25779); assay: Cysteine protease inhibition, progress curve method, cruzain; assay type: biochemical; conditions: 4 uM Ac-Lys-Glu-Lys-Leu-Arg-AMC, 100 mM Na acetate pH 5.5, 5 mM cysteine; read-out: Cruzain Ki
Procedure: (§1) Standard assay conditions for the determination of kinetic constants used 10 uM fluorogenic peptide substrate, Cbz-Phe-Arg-AMC for the cysteine proteases from Leishmania spp and Schistosoma Mansoni, Cbz-Leu-Arg-AMC for the cysteine proteases from Plasmodium falciparum and Trypanosoma brucei rhodesiensi, and Ac-Lys-Glu-Lys-Leu-Arg-AMC (4 uM final substrate concentration) for the cysteine protease from Trypoanosoma cruzi, and were determined in 100 mM Na acetate at pH 5.5 containing 5 mM cysteine. Stock substrate solutions were prepared at concentrations of […] in DMSO with 10 uM (4 uM for Ac-Lys-Glu-Lys-Leu-Arg-AMC) final substrate concentration in the assays. The final DMSO concentration was 2% and the final volume was 100 uL. All assays were conducted at ambient temperature. Product progress curves were generated over 20 to 30 minutes following formation of AMC product.
(§2) Potential inhibitors were evaluated using the progress curve method. Assays were carried out in the presence of variable concentrations of test compound. Reactions were initiated by addition of enzyme to buffered solutions of inhibitor and substrate. Data analysis was conducted according to one of two procedures depending on the appearance of the progress curves in the presence of inhibitors. For those compounds whose progress curves were linear, apparent inhibition constants (Ki,app) were calculated according to equation 1 (Brandt et al., Biochemitsry, 1989, 28, 140):
(§3) v=VmA/[Ka(1+I/Ki,app)+A] (1)
(§4) Where v is the velocity of the reaction with maximal velocity Vm, A is the concentration of substrate with Michaelis constant of Ka, and I is the concentration of inhibitor.
(§5) [AMC]=vsst+(v0−vss)[1−exp (−kobst)]/kobs (2)
(§6) Where [AMC] is the concentration of product formed over time t, v0 is the initial reaction velocity and vss is the final steady state rate. Values for kobs were then analyzed as a linear function of inhibitor concentration to generate an apparent second order rate constant (kobs/inhibitor concentration or kobs/[I]) describing the time-dependent inhibition. A complete discussion of this kinetic treatment has been fully described (Morrison et al., Adv. Enzymol. Relat. Areas Mol. Biol., 1988, 61, 201).
(§7) Exemplary inhibition data for the compounds used in the present method collected in accordance with the above-described procedure are listed in Table I.

Sequence of Cruzain (P25779 123-337): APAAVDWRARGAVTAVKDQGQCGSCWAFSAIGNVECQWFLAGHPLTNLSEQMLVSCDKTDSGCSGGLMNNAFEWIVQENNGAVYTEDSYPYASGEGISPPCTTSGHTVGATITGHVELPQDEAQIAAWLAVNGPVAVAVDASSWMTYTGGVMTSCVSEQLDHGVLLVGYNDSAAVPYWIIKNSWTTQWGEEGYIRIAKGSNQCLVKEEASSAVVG

| Molecule | Ki [nM] |
| --- | --- |
| CC(C)C[C@@H](NC(=O)c1ccc2c(c1)OCCCO2)C(=O)N[C@@H]1CCCN(S(=O)(=O)c2cccc[n+]2[O-])CC1=O [Example 60, 3,4-Dihydro-2H-benzo[b][1,4]dioxepine-7-carboxylic acid {(S)-3-methyl-1-[3-oxo-1-(1-oxy-pyridine-2-sulfonyl)-azepan-4-ylcarbamoyl]butyl}amide] | 9.8 |
| CC(C)CC(NC(=O)c1cc2ccccc2o1)C(=O)N[C@@H]1CCCN(S(=O)(=O)c2ccccc2C#N)CC1=O (some centres unmarked) [Example 115] | 14 |
| 4-[2-(2-{(S)-3-Methyl-1[3-oxo-1-(pridine-2-sulfonyl)-azepan-4-ylcarbamoyl]-butylcarbamoyl}-benzofuran-5-yloxy)-ethyl]-piperazine-1-carboxylic acid tert-butyl ester [Example 22] | 14 |
| CC(C)C[C@@H](NC(=O)COc1ccc(F)cc1)C(=O)N[C@@H]1CCCN(S(=O)(=O)c2ccccn2)CC1=O (stereo in doubt) [Example 37, (S)-2-[2-(4-Fluoro-phenoxy)-acetylamino]-4-methyl-pentanoic acid [3-oxo-(pyridine-2-sulfonyl)-azepan-4-yl]-amide] | 33 |
| CC(C)C[C@H](NC(=O)c1cc2ccccc2s1)C(=O)N[C@H]1CCCN(S(=O)(=O)c2ccccc2F)CC1=O [Example 95, Benzo[b]thiophene-2-carboxylic acid-{(S)-1-[1-(2-fluoro-benzenesulfonyl)-3-oxo-azepan-4-ylcarbamoyl]-3-methyl-butyl}-amide] | 11 |
| CC(C)C[C@@H](NC(=O)c1cc2ccccc2[nH]1)C(=O)N[C@@H]1CCCN(S(=O)(=O)c2ccccn2)CC1=O (stereo in doubt) [Example 32, 1H-Indole-2-carboxylic acid {(S)-3-methyl-1-[3-oxo-1-(pyridine-2-sulfonyl)-azepan-4-ylcarbamoyl]-butyl}amide] | 17 |
| CCCC[C@H](NC(=O)c1cc2ccccc2o1)C(=O)NC1CCCN(S(=O)(=O)c2ccccn2)CC1=O (stereo partly drawn) [Example 103, Benzofuran-2-carboxylic acid{(S)-1-[3-oxo-1-(pyridine-2-sulfonyl)-azepan-4-ylcarbamoyl]-pentyl}-amide] | 60 |
| COc1cccc2oc(C(=O)N[C@@H](CC(C)C)C(=O)N[C@H]3CCN(S(=O)(=O)c4cccc[n+]4[O-])CCC3=O)c(C)c12 [Example 203, 4-Methoxy-3-methyl-benzofuran-2-carboxylic acid {(S)-3-methyl-1-[3-oxo-1-(1-oxy-pyridine-2-sulfonyl)-azepan-4-ylcarbamoyl]-butyl}-amide] | 20 |
| CC(C)C[C@@H](NC(=O)c1cc2cc(OCCN3CCCC3)ccc2o1)C(=O)NC1CCCN(S(=O)(=O)c2ccccc2)CC1=O (single isomer, unassigned) [Example 13] | 32 |
| COc1ccc2oc(C(=O)N[C@H](CC(C)C)C(=O)N[C@@H]3CCCN(S(=O)(=O)c4cccc[n+]4[O-])CC3=O)cc2c1 [Example 53, 5-Methoxy-benzofuran-2-carboxylic acid {(S)-3-methyl-1[3-oxo-1-(1-oxy-pyridine-2-sulfonyl)-azepan-4-ylcarbamoyl]-butyl}amide] | 10 |
| Cc1cccc(S(=O)(=O)N2CCC[C@@H](NC(=O)[C@@H](CC(C)C)NC(=O)c3cc4ccccc4o3)C(=O)C2)n1 (stereo in doubt) [Example 172, Benzofuran-2-carboxylic acid {(S)-3-methyl-1-[1-(6-methyl-pyridine-2-sulfonyl)-3-oxo-azepan-4-ylcarbamoyl]-butyl}amide] | 7.4 |
| CC(C)C[C@@H](NC(=O)c1cc2cc(OCCN3CCOCC3)ccc2o1)C(=O)N[C@@H]1CCCN(S(=O)(=O)c2ccccn2)CC1=O [Example 18, 5-(2-Morpholino-4-yl-ethoxy)-benzofuran-2-carboxylic acid {(S)-3-methyl-1-[3-oxo-1-(pyridine-2-sulfonyl)-azepan-4-ylcarbamoyl]-butyl}1-amide] | 6.3 |
| CC(C)C[C@H](NC(=O)c1cc2ccccc2o1)C(=O)N[C@H]1CCCN(S(=O)(=O)c2cccs2)CC1=O [Example 38, Benzofuran-2-carboxylic acid {(S)-3-methyl-1-[3-oxo-1-(thiophene-2-sulfonyl)-azepan-4-ylcarbamoyl]-butyl}-amide] | 4.5 |
| CC(C)CC(NC(=O)c1ccc(S(C)(=O)=O)cc1)C(=O)N[C@@H]1CCCN(S(=O)(=O)c2ccccc2C#N)CC1=O (some centres unmarked) [Example 114] | 14 |
| CC(C)C[C@@H](NC(=O)c1cc2cc(OCCN3CCOCC3)ccc2o1)C(=O)N[C@@H]1CCCN(S(=O)(=O)c2ccccc2)CC1=O (single isomer, unassigned) [Example 7] | 23 |
| CC(C)C[C@@H](NC(=O)c1cc2ccccc2o1)C(=O)N[C@@H]1CCCN(S(=O)(=O)c2ccccc2)CC1=O (stereo in doubt) [Example 12, Benzofuran-2-carboxylic acid [(S)-1-(1-benzenesulfonyl-3-oxo-azepan-4-ylcarbamoyl)-3-methyl-butyl]amide] | 16 |
| CC(C)C[C@H](NC(=O)c1cc2ccccc2s1)C(=O)N[C@@H]1CCCN(S(=O)(=O)c2cccs2)CC1=O [Example 146, Benzo[b]thiophene-2-carboxylic acid-{(S)-3-methyl-1-[3-oxo-1-(thiophene-2-sulfonyl)-azepan-4-ylcarbamoyl]-butyl}-amide] | 6.7 |
| CC(C)CC(NC(=O)c1cc2ccccc2o1)C(=O)NC1CCC(C)N(S(=O)(=O)c2ccccn2)CC1=O (stereo in doubt) [Example 181, Benzofuran-2-carboxylic acid {(S)-3-methyl-1-[(4S,7S)-7-methyl-3-oxo-1-(pyridine-2-sulfonyl)-azepan-4-ylcarbamoyl]-butyl}-amide] | 15 |

molecular target: Rhodazain (Trypanosoma brucei rhodesiense, UniProt Q95PM0); assay: Cysteine protease inhibition, progress curve method, rhodazain; assay type: biochemical, Trypanosoma brucei rhodesiensi; conditions: Rhodazain Ki (nM), 10 uM Cbz-Leu-Arg-AMC, 100 mM Na acetate pH 5.5, 5 mM cysteine
Sequence (Q95PM0 entry or part of it): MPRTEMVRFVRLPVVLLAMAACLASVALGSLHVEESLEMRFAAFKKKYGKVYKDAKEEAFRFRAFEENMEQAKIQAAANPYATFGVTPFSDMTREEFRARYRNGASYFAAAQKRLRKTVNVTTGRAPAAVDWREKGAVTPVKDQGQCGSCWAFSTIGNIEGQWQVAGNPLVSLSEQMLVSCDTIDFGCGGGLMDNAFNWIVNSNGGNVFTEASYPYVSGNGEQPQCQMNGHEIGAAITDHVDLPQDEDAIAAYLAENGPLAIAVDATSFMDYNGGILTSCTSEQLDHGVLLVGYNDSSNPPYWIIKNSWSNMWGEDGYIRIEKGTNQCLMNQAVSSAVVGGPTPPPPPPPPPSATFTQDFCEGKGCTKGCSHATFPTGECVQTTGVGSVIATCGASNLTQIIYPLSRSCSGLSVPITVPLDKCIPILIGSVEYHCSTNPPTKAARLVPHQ
Procedure: as §1, §2, §3, §4, §5, §6, §7

| Molecule | Ki [nM] |
| --- | --- |
| Cc1coc(C(=O)N[C@@H](CC(C)C)C(=O)N[C@H]2CCCN(C(=O)Nc3ccccc3F)CC2=O)c1 [Example 222, 4-Methyl-furan-2-carboxylic acid {(S)-1-[1-(2-fluoro-phenylcarbamoyl)-3-oxo-azepan-4-ylcarbamoyl]-3-methyl-butyl}-amide] | 4.9 |
| CC(C)C[C@@H](NC(=O)c1cnc2ccccc2n1)C(=O)N[C@@H]1CCCN(S(=O)(=O)c2cccc[n+]2[O-])CC1=O [Example 101, Quinoxaline-2-carboxylic acid {(S)-3-methyl-1-[3-oxo-1-(1-oxy-pyridine-2-sulfonyl)-azepan-4-ylcarbamoyl]-butyl}amide] | 11 |
| COc1ccc2c(C)c(C(=O)N[C@@H](CC(C)C)C(=O)N[C@H]3CCN(S(=O)(=O)c4cccc[n+]4[O-])CCC3=O)oc2c1 [Example 204, 6-Methoxy-3-methyl-benzofuran-2-carboxylic acid {(S)-3-methyl-1-[3-oxo-1-(1-oxy-pyridine-2-sulfonyl)-azepan-4-ylcarbamoyl]-butyl}-amide] | 4.5 |
| CC(C)C[C@H](NC(=O)c1nc(-c2ccccc2)oc1C(F)(F)F)C(=O)NC1CCCN(S(=O)(=O)c2ccccn2)CC1=O (stereo partly drawn) [Example 72, 2-Phenyl-5-trifluoromethyl-oxazole-4-carboxylic acid {(S)-3-methyl-1-[3-oxo-1-(pyridine-2-sulfonyl)-azepan-4-ylcarbamoyl]-butyl}amide] | 9.9 |
| CC(C)C[C@H](NC(=O)c1cnc2ccccc2n1)C(=O)N[C@H]1CCCN(S(=O)(=O)c2nccs2)CC1=O [Example 129, Quinoxaline-2-carboxylic acid {(S)-3-methyl-1-[3-oxo-1-(thiazole-2-sulfonyl)-azepan-4-ylcarbamoyl]-butyl}amide] | 5.6 |
| CC(C)C[C@@H](NC(=O)c1ccc(-c2cccc(C(F)(F)F)c2)o1)C(=O)NC1CCCN(C(=O)c2cccc[n+]2[O-])CC1=O (stereo partly drawn) [Example 186, 5-(3-Trifluoromethyl-phenyl)-furan-2-carboxylic acid ((S)-3-methyl-1-{3-oxo-1[-1-(1-oxy-pyridin-2-yl)-methanoyl]-azepan-4-ylcarbamoyl}-butyl)-amide] | 11 |
| Cc1c(C(=O)N[C@H](CC(C)C)C(=O)N[C@H]2CCCN(S(=O)(=O)c3cccc[n+]3[O-])CC2=O)oc2cc(F)ccc12 [Example 193, 6-Fluoro-3-methyl-benzofuran-2-carboxylic acid {(S)-3-methyl-1-[3-oxo-1-(1-oxy-pyridine-2-sulfonyl)-azepan-4-ylcarbamoyl]-butyl}-amide] | 8.1 |
| COc1ccc(CCCCC(=O)NC(CC(C)C)C(=O)NC2CCCN(S(=O)(=O)c3ccccn3)CC2=O)cc1 [Example 122, (S)-2-[5-(4-Methoxy-phenyl)-pentanoylamniol-4-methyl-pentanoic acid [3-oxo-1-(pyridine-2-sulfonyl)-azepan-4-yl[-amide] | 8.8 |
